Legend:
[1] = system: UACC-62; assay: Cytotoxicity against human UACC62 cells assessed as cell growth at 100 uM after 48 hrs by sulforhodamine B assay relative to control; type: functional; conditions: UACC-62, 48 h, read-out: Activity
[2] = system: OVCAR-5; assay: Cytotoxicity against human OVCAR5 cells assessed as cell growth at 1 uM after 48 hrs by sulforhodamine B assay relative to control; type: functional; conditions: OVCAR-5, 48 h, read-out: Activity
[3] = system: RPMI-8226; assay: Cytotoxicity against human RPMI8226 cells assessed as cell growth at 0.1 uM after 48 hrs by sulforhodamine B assay relative to control; type: functional; conditions: RPMI-8226, 48 h, read-out: Activity
[4] = system: OVCAR-4; assay: Cytotoxicity against human OVCAR4 cells assessed as cell growth at 0.01 uM after 48 hrs by sulforhodamine B assay relative to control; type: functional; conditions: OVCAR-4, 48 h, read-out: Activity
[5] = system: HL-60(TB); assay: Cytotoxicity against human HL-60(TB) cells assessed as cell growth at 0.1 uM after 48 hrs by sulforhodamine B assay relative to control; type: functional; conditions: HL-60, 48 h, read-out: Activity
[6] = system: PC-3; assay: Cytotoxicity against human PC3 cells assessed as cell growth at 0.1 uM after 48 hrs by sulforhodamine B assay relative to control; type: functional; conditions: PC-3, 48 h, read-out: Activity
[7] = system: SW-620; assay: Cytotoxicity against human SW620 cells assessed as growth inhibition after 48 hrs by sulforhodamine B assay; type: functional; conditions: SW-620, 48 h
[8] = system: K562; assay: Cytotoxicity against human K562 cells assessed as growth inhibition after 48 hrs by sulforhodamine B assay; type: functional; conditions: K562, 48 h
[9] = system: HCT-15; assay: Cytotoxicity against human HCT15 cells assessed as cell growth at 0.1 uM after 48 hrs by sulforhodamine B assay relative to control; type: functional; conditions: HCT-15, 48 h, read-out: Activity
[10] = system: SN12C; assay: Cytotoxicity against human SN12C cells assessed as cell growth at 1 uM after 48 hrs by sulforhodamine B assay relative to control; type: functional; conditions: read-out: Activity
[11] = system: U-251; assay: Cytotoxicity against human U251 cells assessed as cell growth at 100 uM after 48 hrs by sulforhodamine B assay relative to control; type: functional; conditions: U-251, 48 h, read-out: Activity
[12] = system: HCT-116; assay: Cytotoxicity against human HCT116 cells assessed as cell growth at 0.01 uM after 48 hrs by sulforhodamine B assay relative to control; type: functional; conditions: HCT-116, 48 h, read-out: Activity
[13] = system: OVCAR-8; assay: Cytotoxicity against human OVCAR8 cells assessed as cell growth at 100 uM after 48 hrs by sulforhodamine B assay relative to control; type: functional; conditions: OVCAR-8, 48 h, read-out: Activity
[14] = system: SF-268; assay: Cytotoxicity against human SF268 cells assessed as cell growth at 1 uM after 48 hrs by sulforhodamine B assay relative to control; type: functional; conditions: SF-268, 48 h, read-out: Activity
[15] = system: BT-549; assay: Cytotoxicity against human BT549 cells assessed as cell growth at 10 uM after 48 hrs by sulforhodamine B assay relative to control; type: functional; conditions: BT-549, 48 h, read-out: Activity
[16] = system: KM12; assay: Cytotoxicity against human KM12 cells assessed as cell growth at 0.1 uM after 48 hrs by sulforhodamine B assay relative to control; type: functional; conditions: KM12, 48 h, read-out: Activity
[17] = system: KM12; assay: Cytotoxicity against human KM12 cells assessed as cell growth at 10 uM after 48 hrs by sulforhodamine B assay relative to control; type: functional; conditions: KM12, 48 h, read-out: Activity
[18] = system: SW-620; assay: Cytotoxicity against human SW620 cells assessed as cell growth at 100 uM after 48 hrs by sulforhodamine B assay relative to control; type: functional; conditions: SW-620, 48 h, read-out: Activity
[19] = system: NCI-H23; assay: Cytotoxicity against human NCI-H23 cells assessed as cell growth at 0.01 uM after 48 hrs by sulforhodamine B assay relative to control; type: functional; conditions: NCI-H23, 48 h, read-out: Activity
[20] = system: 786-0; assay: Cytotoxicity against human 786-0 cells assessed as cell growth at 10 uM after 48 hrs by sulforhodamine B assay relative to control; type: functional; conditions: 786-0, 48 h, read-out: Activity
[21] = system: K562; assay: Cytotoxicity against human K562 cells assessed as cell growth at 0.1 uM after 48 hrs by sulforhodamine B assay relative to control; type: functional; conditions: K562, 48 h, read-out: Activity
[22] = system: SK-OV-3; assay: Cytotoxicity against human SKOV3 cells assessed as cell growth at 10 uM after 48 hrs by sulforhodamine B assay relative to control; type: functional; conditions: SK-OV-3, 48 h, read-out: Activity
[23] = system: SW-620; assay: Cytotoxicity against human SW620 cells assessed as cell growth at 1 uM after 48 hrs by sulforhodamine B assay relative to control; type: functional; conditions: SW-620, 48 h, read-out: Activity
[24] = system: UACC-62; assay: Cytotoxicity against human UACC62 cells assessed as cell growth at 0.01 uM after 48 hrs by sulforhodamine B assay relative to control; type: functional; conditions: UACC-62, 48 h, read-out: Activity
[25] = system: NCI-H322M; assay: Cytotoxicity against human NCI-H322M cells assessed as cell growth at 100 uM after 48 hrs by sulforhodamine B assay relative to control; type: functional; conditions: read-out: Activity
[26] = system: MCF7; assay: Cytotoxicity against human MCF7 cells assessed as growth inhibition after 48 hrs by MTT assay; type: functional, cell-based; conditions: MCF7, 48 h
[27] = system: MDA-MB-435; assay: Cytotoxicity against human MDA-MB-435 cells assessed as cell growth at 1 uM after 48 hrs by sulforhodamine B assay relative to control; type: functional; conditions: MDA-MB-435, 48 h, read-out: Activity
[28] = system: SF-539; assay: Cytotoxicity against human SF539 cells assessed as cell growth at 1 uM after 48 hrs by sulforhodamine B assay relative to control; type: functional; conditions: SF-539, 48 h, read-out: Activity
[29] = system: RPMI-8226; assay: Cytotoxicity against human RPMI8226 cells assessed as cell growth at 1 uM after 48 hrs by sulforhodamine B assay relative to control; type: functional; conditions: RPMI-8226, 48 h, read-out: Activity
[30] = system: NCI-H322M; assay: Cytotoxicity against human NCI-H322M cells assessed as cell growth at 0.1 uM after 48 hrs by sulforhodamine B assay relative to control; type: functional; conditions: read-out: Activity
[31] = system: SK-MEL-28; assay: Cytotoxicity against human SK-MEL-28 cells assessed as cell growth at 100 uM after 48 hrs by sulforhodamine B assay relative to control; type: functional; conditions: SK-MEL-28, 48 h, read-out: Activity
[32] = system: ACHN; assay: Cytotoxicity against human ACHN cells assessed as growth inhibition after 48 hrs by sulforhodamine B assay; type: functional
[33] = system: RPMI-8226; assay: Cytotoxicity against human RPMI8226 cells assessed as growth inhibition after 48 hrs by sulforhodamine B assay; type: functional; conditions: RPMI-8226, 48 h
[34] = system: MDA-MB-435; assay: Cytotoxicity against human MDA-MB-435 cells assessed as cell growth at 0.01 uM after 48 hrs by sulforhodamine B assay relative to control; type: functional; conditions: MDA-MB-435, 48 h, read-out: Activity

`COc1cc(C(=O)/C=C/c2cc(-c3cc(OC)c(OC)c(OC)c3)n[nH]2)cc(OC)c1OC` gave a growth at 100 µM [1] of -97%, a growth at 1 µM [2] of 89% and a growth at 0.1 µM [3] of 83%. The growth at 0.01 µM [4] was 95%, the growth at 0.1 µM [5] was 101% and the growth at 0.1 µM [6] was 92%. It also gave an LC50 (lethal concentration, 50% net cell kill) [7] of 5.97 µM, a TGI [7] of 3.08 µM and an LC50 (concentration killing 50% of cells) [8] greater than 100 µM. For the same compound, the TGI [8] was greater than 100 µM, the growth at 0.1 µM [9] was 94% and the growth at 1 µM [10] was 78%. The growth at 100 µM [11] was -99%, the growth at 0.01 µM [12] was 97% and the growth at 100 µM [13] was -99%. The growth at 1 µM [14] was 89%, the growth at 10 µM [15] was -96% and the growth at 0.1 µM [16] was 103%. It also gave a growth at 10 µM [17] of -90%, a growth at 100 µM [18] of -95% and a growth at 0.01 µM [19] of 100%. For the same compound, the growth at 10 µM [20] was -77%, the growth at 0.1 µM [21] was 104% and the growth at 10 µM [22] was 5%. The growth at 1 µM [23] was 85%, the growth at 0.01 µM [24] was 97% and the growth at 100 µM [25] was -99%. For the same compound, the IC50 [26] was 0.43 µM, the growth at 1 µM [27] was 79% and the growth at 1 µM [28] was 66%. For the same compound, the growth at 1 µM [29] was 17%, the growth at 0.1 µM [30] was 97% and the growth at 100 µM [31] was -97%. The LC50 [32] was 5.57 µM, the TGI [32] was 3.01 µM and the LC50 [33] was greater than 100 µM. For the same compound, the TGI [33] was 2.06 µM and the growth at 0.01 µM [34] was 99%.
Compound `COc1cc(-c2cc(/C=C/C(=O)c3ccc(Cl)c(Cl)c3)[nH]n2)cc(OC)c1OC` has a growth at 100 µM [1] of 14%, a growth at 1 µM [2] of 92% and a growth at 0.1 µM [3] of 95%. It also gave a growth at 0.01 µM [4] of 92%, a growth at 0.1 µM [5] of 100% and a growth at 0.1 µM [6] of 100%. It also gave an LC50 (lethal concentration, 50% net cell kill) [7] greater than 100 µM, a TGI [7] of 79.6 µM and an LC50 (concentration killing 50% of cells) [8] greater than 100 µM. The TGI [8] was 64.4 µM, the growth at 0.1 µM [9] was 94% and the growth at 1 µM [10] was 91%. It also gave a growth at 100 µM [11] of -5%, a growth at 0.01 µM [12] of 102% and a growth at 100 µM [13] of -36%. The growth at 1 µM [14] was 92%, the growth at 10 µM [15] was 47% and the growth at 0.1 µM [16] was 93%. For the same compound, the growth at 10 µM [17] was 19%, the growth at 100 µM [18] was -5% and the growth at 0.01 µM [19] was 95%. It also gave a growth at 10 µM [20] of 50%, a growth at 0.1 µM [21] of 106% and a growth at 10 µM [22] of 26%. It also gave a growth at 1 µM [23] of 91%, a growth at 0.01 µM [24] of 97% and a growth at 100 µM [25] of 5%. It also gave an IC50 [26] of 3.2 µM, a growth at 1 µM [27] of 90% and a growth at 1 µM [28] of 88%. For the same compound, the growth at 1 µM [29] was 33%, the growth at 0.1 µM [30] was 92% and the growth at 100 µM [31] was -16%. For the same compound, the LC50 [32] was greater than 100 µM, the TGI [32] was greater than 100 µM and the LC50 [33] was greater than 100 µM. For the same compound, the TGI [33] was 6.73 µM and the growth at 0.01 µM [34] was 94%.
`COc1cc(-c2cc(/C=C/C(=O)c3ccc(F)c(F)c3)[nH]n2)cc(OC)c1OC` showed a growth at 100 µM [1] of -81%, a growth at 1 µM [2] of 92% and a growth at 0.1 µM [3] of 90%. It also gave a growth at 0.01 µM [4] of 90%, a growth at 0.1 µM [5] of 93% and a growth at 0.1 µM [6] of 93%. The LC50 (lethal concentration, 50% net cell kill) [7] was greater than 100 µM, the TGI [7] was greater than 100 µM and the LC50 (concentration killing 50% of cells) [8] was greater than 100 µM. It also gave a TGI [8] of 16.5 µM, a growth at 0.1 µM [9] of 95% and a growth at 1 µM [10] of 89%. The growth at 100 µM [11] was -29%, the growth at 0.01 µM [12] was 101% and the growth at 100 µM [13] was -12%. For the same compound, the growth at 1 µM [14] was 83%, the growth at 10 µM [15] was 23% and the growth at 0.1 µM [16] was 92%. The growth at 10 µM [17] was 3%, the growth at 100 µM [18] was 1% and the growth at 0.01 µM [19] was 95%. The growth at 10 µM [20] was 11%, the growth at 0.1 µM [21] was 109% and the growth at 10 µM [22] was 17%. It also gave a growth at 1 µM [23] of 93%, a growth at 0.01 µM [24] of 97% and a growth at 100 µM [25] of 3%. It also gave an IC50 [26] of 2.5 µM, a growth at 1 µM [27] of 88% and a growth at 1 µM [28] of 90%. The growth at 1 µM [29] was 73%, the growth at 0.1 µM [30] was 94% and the growth at 100 µM [31] was -39%. For the same compound, the LC50 [32] was greater than 100 µM, the TGI [32] was greater than 100 µM and the LC50 [33] was greater than 100 µM. For the same compound, the TGI [33] was 6.01 µM and the growth at 0.01 µM [34] was 98%.

— ChEMBL document CHEMBL4138123, “Design, synthesis and biological evaluation of novel pyrazolochalcones as potential modulators of PI3K/Akt/mTOR pathway and inducers of apoptosis in breast cancer cells” (Eur J Med Chem, 2017)
